PMC2644304 (Nature chemical biology, 2009)

Biological target: AcsD (Dickeya chrysanthemi, UniProt Q93AT8)
Assay: X-ray crystal structure of the complex
Type: binding
Details: co-crystal with sulfate and citrate; ATP site

Nc1ncnc2c1ncn2[C@@H]1O[C@H](CO)[C@@H](O)[C@H]1O [adenosine]
X-ray crystal structure of the complex: adenosine binds in the same pocket as seen in the ATP structure
